Assay results reported in patent US20090318423A1, “Ion Channel Modulators & Uses Thereof” (LECTUS THERAPEUTICS LIMITED, priority 2006, published 2009).

Biological target: T1, Kv1.1 alpha subunit T1 domain binding to Kvbeta1 subunits (Rattus norvegicus, UniProt P63144)
T1 construct: expression of Kv1.1 alpha subunit T1 domains in E. coli; His; made in house; host or cells: E. coli (cleared lysates)
T1 sequence (P63144 1-401): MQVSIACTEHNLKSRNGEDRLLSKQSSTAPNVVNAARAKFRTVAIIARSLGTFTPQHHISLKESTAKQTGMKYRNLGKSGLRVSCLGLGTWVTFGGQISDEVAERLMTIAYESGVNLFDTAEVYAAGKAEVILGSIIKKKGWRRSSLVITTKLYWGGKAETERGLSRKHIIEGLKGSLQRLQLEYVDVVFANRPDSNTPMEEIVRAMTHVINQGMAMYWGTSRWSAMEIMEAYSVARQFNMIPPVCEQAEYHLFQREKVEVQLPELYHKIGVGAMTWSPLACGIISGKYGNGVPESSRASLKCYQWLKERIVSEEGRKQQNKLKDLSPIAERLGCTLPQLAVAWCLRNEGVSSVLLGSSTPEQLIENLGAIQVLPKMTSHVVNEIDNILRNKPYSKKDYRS
Test: Kv1.x T1 / Kvbeta subunit protein-protein interaction assay (ELISA)
Conditions: His-/FLAG-tagged Kv1.1 T1 domain lysate; biotin-tagged Kvbeta1 immobilised on streptavidin plates; anti-FLAG/HRP ELISA detection; read-out: IC50 for inhibition of Kv1.1 alpha subunit T1 binding to Kvbeta1 subunits
Method: Compounds of Examples 3, 13-15 and 18-22 and 24-26 were examined for their ability to inhibit the interaction between Kv1.x channels and Kvbeta subunits using a protein-protein interaction assay.
Cloning of rat His- and biotin-tagged Kvbeta1 subunit cDNA, expression of Kvbeta1 subunits in E. coli and lysis of E. coli containing Kvbeta1 subunits were carried out as previously described (Kozlowski et al., patent application WO03078464).
Cloning of His- and FLAG-tagged Kv1.1 alpha subunit T1 domain cDNA, expression of Kv1.1 alpha subunit T1 domains in E. coli and lysis of E. coli containing Kv1.1 alpha subunit T1 domains were carried out as previously described (Kozlowski et al., patent application WO03078464).
To 96-well streptavidin coated microtitre plates, 100 μl of optimized concentrations of Kvbeta1 subunit cleared lysates (typically 1 in 10 dilutions in PBS-Tween) were added to each well. Plates were incubated at room temperature for 1 hour prior to use. Each well was then washed 3 times with 300 μl of PBS-Tween. Following the final wash, 80 μl of PBS-Tween was added to each well.
The test compounds (dissolved in a suitable vehicle) were added to the wells of a prepared 96-well microliter plate to achieve a range of concentrations to maintain a final assay volume of 100 μl. Plates were incubated for 30 minutes at room temperature.
After incubation with test compounds, 100 μl of Kv1.1 alpha subunit T1 domain cleared lysate (diluted 1 in 10 in PBS-Tween) was added to each well and incubated for 60 minutes at room temperature on a shaker. Unbound Kv1.1 alpha subunit T1 domain was removed by washing 3 times in 300 μl of PBS-Tween. Bound Kv1.1 alpha subunit T1 domain was estimated by using appropriately diluted mouse anti-FLAG antibody and anti-mouse IgG secondary antibody HRP conjugate using standard ELISA procedures. HRP was detected as previously described (Kozlowski et al., patent application WO03078464).
Data were analyzed using standard software packages. The test compounds were examined for their ability to inhibit the binding of Kv1.1 alpha subunit T1 domain to Kvbeta1 subunits to determine inhibition as a percentage of maximal binding in the absence of any test compound. Results are presented as the half maximal inhibitory concentration (IC50) for inhibition of Kv1.1 alpha subunit T1 binding to Kvbeta1 subunits.

IC50 | Compound
30 µM | Cc1ccc(S(=O)(=O)NC(=O)Nc2ccc3c(c2)CCN(C(=O)NS(=O)(=O)c2ccc(C)cc2)C3)cc1 [Example 13, N-[(4-methylphenyl)sulfonyl]-6-({[(4-methylphenyl)sulfonyl]-carbamoyl}amino)-3,4-dihydroisoquinoline-2(1H)-carboxamide]
16 µM | Cc1ccc(S(=O)(=O)NC(=O)Nc2ccc3c(c2)CN(C(=O)NS(=O)(=O)c2ccc(C)cc2)C3)cc1 [Example 14, N-[(4-methylphenyl)sulfonyl]-5-[({[(4-methylphenyl)sulfonyl]amino}carbonyl)amino]-1,3-dihydro-2H-isoindole-2-carboxamide]
59 µM | Cc1ccc(S(=O)(=O)NC(=O)Nc2ccc3c(c2)CCN(C(=O)NS(=O)(=O)c2ccc(C)cc2)CC3)cc1 [Example 15, N-[(4-Methylphenyl)sulfonyl]-7-({[(4-methylphenyl)sulfonyl]carbamoyl}amino)-1,2,4,5-tetrahydro-3H-3-benzazepine-3-carboxamide]
47 µM | Cc1cccc(S(=O)(=O)NC(=O)Nc2ccc3c(c2)CCN(C(=O)NS(=O)(=O)c2cccc(C)c2)CC3)c1 [Example 17, N-[(3-Methylphenyl)sulfonyl]-7-({[(3-methylphenyl)sulfonyl]carbamoyl}amino)-1,2,4,5-tetrahydro-3H-3-benzazepine-3-carboxamide]
181 µM | O=C(Nc1ccc2c(c1)CCN(C(=O)NS(=O)(=O)c1ccccc1Cl)CC2)NS(=O)(=O)c1ccccc1Cl [Example 18, N-[(2-Chlorophenyl)sulfonyl]-7-({[(2-chlorophenyl)sulfonyl]carbamoyl}amino)-1,2,4,5-tetrahydro-3H-3-benzazepine-3-carboxamide]
51 µM | O=C(Nc1ccc2c(c1)CCN(C(=O)NS(=O)(=O)c1ccc(Cl)cc1)CC2)NS(=O)(=O)c1ccc(Cl)cc1 [Example 19, N-[(4-Chlorophenyl)sulfonyl]-7-({[(4-chlorophenyl)sulfonyl]carbamoyl}amino)-1,2,4,5-tetrahydro-3H-3-benzazepine-3-carboxamide]
191 µM | O=C(Nc1ccc2c(c1)CCN(C(=O)NS(=O)(=O)c1ccc(F)cc1)CC2)NS(=O)(=O)c1ccc(F)cc1 [Example 20, N-[(4-Fluorophenyl)sulfonyl]-7-({[(4-fluorophenyl)sulfonyl]carbamoyl}amino)-1,2,4,5-tetrahydro-3H-3-benzazepine-3-carboxamide]
38 µM | COc1ccc(S(=O)(=O)NC(=O)Nc2ccc3c(c2)CCN(C(=O)NS(=O)(=O)c2ccc(OC)cc2)CC3)cc1 [Example 21, N-[(4-Methoxyphenyl)sulfonyl]-7-({[(4-methoxyphenyl)sulfonyl]-carbamoyl}amino)-1,2,4,5-tetrahydro-3H-3-benzazepine-3-carboxamide]
41 µM | CC(C)(C)c1ccc(S(=O)(=O)NC(=O)Nc2ccc3c(c2)CCN(C(=O)NS(=O)(=O)c2ccc(C(C)(C)C)cc2)CC3)cc1 [Example 22, N-[(4-tert-Butylphenyl)sulfonyl]-7-({[(4-tert-butylphenyl)sulfonyl]carbamoyl}-amino)-1,2,4,5-tetrahydro-3H-3-benzazepine-3-carboxamide]
81 µM | Cc1ccc(S(=O)(=O)NC(=O)N2CCc3ccc(NS(=O)(=O)c4ccc(C)cc4)cc3CC2)cc1 [Example 24, N-[(4-Methylphenyl)sulfonyl]-7-([(4-methylphenyl)sulfonyl]amino)-1,2,4,5-tetrahydro-3H-3-benzazepine-3-carboxamide]
88 µM | Cc1ccc(S(=O)(=O)NC(=O)N2CCc3ccc(NS(=O)(=O)c4ccc(-c5ccccc5)cc4)cc3CC2)cc1 [Example 25, N-[(4-Methylphenyl)sulfonyl]-7-([(4-biphenyl)sulfonyl]amino)-1,2,4,5-tetrahydro-3H-3-benzazepine-3-carboxamide]
50 µM | N-benzylaminocarbonyl-7-[({[(4-methylphenyl)sulfonyl]amino}carbonyl)amino]-1,2,4,5-tetrahydro-3H-3-benzazepine-3-carboxamide [Example 3]
